The values below come from patent US20100204265A1 (priority 2009, published 2010).

Molecules are shown by their SMILES.

In the experiment the test system is ET (Huh-lucubineo-ET) cell line harboring I389luc-ubi-neo/NS3-3′/ET HCV replicon. The experiment in a line: Replicon assay (HCV replicon, luciferase readout). Format: cell-based. To be noted: Hepatitis C virus. The protocol: A cell line, ET (Huh-lucubineo-ET) is used for screening of compounds for inhibiting HCV RNA dependent RNA polymerase. The ET cell line is stably transfected with RNA transcripts harboring a I389luc-ubi-neo/NS3-3′/ET; replicon with firefly luciferase-ubiquitin-neomycin phosphotransferase fusion protein and EMCV-IRES driven NS3-5B polyprotein containing the cell culture adaptive mutations (E1202G; T1280I; K1846T) (Krieger at al, 2001 and unpublished). The ET cells are grown in DMEM (Dulbeco's Modified Eagle's Medium), supplemented with 10% fetal calf serum, 2 mM Glutamine, Penicillin (100 IU/mL)/Streptomycin (100 μg/mL), 1× nonessential amino acids, and 250 μg/mL G418 (“Geneticin”). They are all available through Life Technologies (Bethesda, Md.). The cells are plated at 0.5−1.0×10^4 cells/well in the 96 well plates and incubated for 24 hrs before adding test compound. The compounds are added to the cells to achieve a final concentration of 0.1 nM to […] and a final DMSO (dimethylsulfoxide) concentration of 0.5%. Luciferase activity is measured 48-72 hours later by adding a lysis buffer and the substrate (Catalog number Glo-lysis buffer E2661 and Bright-Glo luciferase system E2620 Promega, Madison, Wis.). Cells should not be too confluent during the assay. Percent inhibition of replication data is plotted relative to no compound control. Under the same condition, cytotoxicity of the compounds are determined using cell proliferation reagent, WST-1 (Roche, Germany). The compounds showing antiviral activities, but no significant cytotoxicities are chosen to determine EC50 and TC50. For these determinations, a 10 point, 2-fold serial dilution for each compound was used, which spans a concentration range of 1000 fold. EC50 and similarly TC50 values were calculated by fitting % inhibition at each concentration to the following equation:
% inhibition=100%/[(EC50/[I])^b+1]
where b is Hill's coefficient.
Background: A replicon is a self-replicating genome or part of one, used to study replication in cells.
In turn, `O=C(c1nc2c(C(F)(F)F)cc(-c3cn[nH]c3)cn2c1Cl)N1CC=C(c2cn[nH]c2)C1` [Compound 135, [3-Chloro-6-(1H-pyrazol-4-yl)-8-trifluoromethyl-imidazo[1,2-a]pyridin-2-yl]-[3-(1H-pyrazol-4-yl)-2,5-dihydro-pyrrol-1-yl]-methanone] had an EC50 of 0.596 µM.

The compound `O=C(c1nc2c(C(F)(F)F)cc(-c3cn[nH]c3)cn2c1Cl)N1CC=C(C2=CCNCC2)C1` [Compound 136, [3-Chloro-6-(1H-pyrazol-4-yl)-8-trifluoromethyl-imidazo[1,2-a]pyridin-2-yl]-[3-(1,2,3,6-tetrahydro-pyridin-4-yl)-2,5-dihydro-pyrrol-1-yl]-methanone] yielded a half-maximal effective concentration (EC50) of 5.37 µM.

`O=C(c1nc2c(C(F)(F)F)cc(-c3cn[nH]c3)cn2c1Cl)N1CC=C(c2cc[nH]n2)C1` [Compound 137, [3-Chloro-6-(1H-pyrazol-4-yl)-8-trifluoromethyl-imidazo[1,2-a]pyridin-2-yl]-[3-(1H-pyrazol-3-yl)-2,5-dihydro-pyrrol-1-yl]-methanone] came in with an EC50 of more than 50 µM.

Take `O=C(NCCc1cn2cc(-c3ccoc3)cc(C(F)(F)F)c2n1)c1ccccc1` [Compound 138, N-[2-(6-Furan-3-yl-8-trifluoromethyl-imidazo[1,2-a]pyridin-2-yl)-ethyl]-benzamide]: the response was half-maximal at 35.3 µM (EC50). That is a double-digit micromolar value.

Turning to `CS(=O)(=O)NC1CN(C(=O)c2nc3c(C(F)(F)F)cc(-c4ccco4)cn3c2Cl)C1` [Compound 139, N-[1-(3-Chloro-6-furan-2-yl-8-trifluoromethyl-imidazo[1,2-a]pyridine-2-carbonyl)-azetidin-3-yl]-methanesulfonamide], the midpoint of the response, the EC50, lay at 0.112 µM.

As for `CS(=O)(=O)NC1CN(C(=O)c2nc3c(C(F)(F)F)cc(Br)cn3c2Cl)C1` [Compound 140, N-[1-(6-Bromo-3-chloro-8-trifluoromethyl-imidazo[1,2-a]pyridine-2-carbonyl)-azetidin-3-yl]-methanesulfonamide], a half-maximal response (EC50) required 13.8 µM.

In turn, `CS(=O)(=O)NC1CN(C(=O)c2nc3c(C(F)(F)F)cc(-c4cccc(F)c4)cn3c2Cl)C1` [Compound 141, N-{1-[3-Chloro-6-(3-fluoro-phenyl)-8-trifluoromethyl-imidazo[1,2-a]pyridine-2-carbonyl]-azetidin-3-yl}-methanesulfonamide] displayed a half-maximal effective concentration (EC50) of 0.476 µM.

Regarding `CS(=O)(=O)NC1CN(C(=O)c2nc3c(C(F)(F)F)cc(-c4cccnc4)cn3c2Cl)C1` [Compound 142, N-[1-(3-Chloro-6-pyridin-3-yl-8-trifluoromethyl-imidazo[1,2-a]pyridine-2-carbonyl)-azetidin-3-yl]-methanesulfonamide], the midpoint of the response, the EC50, lay at 1.94 µM.

`CN(C1CN(C(=O)c2nc3c(C(F)(F)F)cc(-c4ccoc4)cn3c2Cl)C1)S(C)(=O)=O` [Compound 143, N-[1-(3-Chloro-6-furan-3-yl-8-trifluoromethyl-imidazo[1,2-a]pyridine-2-carbonyl)-azetidin-3-yl]-N-methyl-methanesulfonamide] showed an EC50 of 0.901 µM. Against the preceding compound, the EC50 is about 2.2-fold lower.

`CS(=O)(=O)N(CCO)C1CN(C(=O)c2nc3c(C(F)(F)F)cc(-c4ccoc4)cn3c2Cl)C1` [Compound 144, N-[1-(3-Chloro-6-furan-3-yl-8-trifluoromethyl-imidazo[1,2-a]pyridine-2-carbonyl)-azetidin-3-yl]-N-(2-hydroxy-ethyl)-methanesulfonamide]: the EC50 came out at 7.55 µM.

The compound `CS(=O)(=O)NC1CN(C(=O)c2cn3cc(-c4coc(Br)c4)cc(C(F)(F)F)c3n2)C1` [Compound 145, N-{1-[6-(5-Bromo-furan-3-yl)-8-trifluoromethyl-imidazo[1,2-a]pyridine-2-carbonyl]-azetidin-3-yl}-methanesulfonamide] displayed an EC50 of 3.5 µM.

Regarding `CCS(=O)(=O)NC1CN(C(=O)c2cn3cc(-c4coc(Br)c4)cc(C(F)(F)F)c3n2)C1` [Compound 146, Ethanesulfonic acid {1-[6-(5-bromo-furan-3-yl)-8-trifluoromethyl-imidazo[1,2-a]pyridine-2-carbonyl]-azetidin-3-yl}-amide], the concentration giving a half-maximal response (EC50) was 2.24 µM. Against the preceding compound, the EC50 is about 1.6-fold lower.

For the compound `O=C(c1cn2cc(-c3coc(Br)c3)cc(C(F)(F)F)c2n1)N1CC(NS(=O)(=O)C2CC2)C1` [Compound 147, Cyclopropanesulfonic acid {1-[6-(5-bromo-furan-3-yl)-8-trifluoromethyl-imidazo[1,2-a]pyridine-2-carbonyl]-azetidin-3-yl}-amide], it took 3.99 µM to reach a half-maximal effect (EC50).

Regarding `O=C(c1nc2c(C(F)(F)F)cc(-c3ccoc3)cn2c1C1CC1)N1CC=C(c2ncccc2F)CC1` [Compound 149, (3-Cyclopropyl-6-furan-3-yl-8-trifluoromethyl-imidazo[1,2-a]pyridin-2-yl)-(3-fluoro-3′,6′-dihydro-2′H-[2,4′]bipyridinyl-1′-yl)-methanone], the midpoint of the response, the EC50, lay at 5.08 µM.

Compound `O=C(c1nc2c(C(F)(F)F)cc(C3=CCCC3)cn2c1Cl)N1CC=C(c2nccs2)C1` [Compound 150, (3-Chloro-6-cyclopent-1-enyl-8-trifluoromethyl-imidazo[1,2-a]pyridin-2-yl)-(3-thiazol-2-yl-2,5-dihydro-pyrrol-1-yl)-methanone] showed a concentration for a half-maximal effect (EC50) of 0.00686 µM.

`O=C(c1nc2c(C(F)(F)F)cc(C3=CCCC3)cn2c1Cl)N1CC=C(c2ncccc2F)CC1` [Compound 151, (3-Chloro-6-cyclopent-1-enyl-8-trifluoromethyl-imidazo[1,2-a]pyridin-2-yl)-(3-fluoro-3′,6′-dihydro-2′H-[2,4′]bipyridinyl-1′-yl)-methanone] showed an EC50 of 0.734 µM. Compared with the last compound, the EC50 is about 110-fold higher.

The compound `O=C(c1nc2c(C(F)(F)F)cc(-c3ccoc3)cn2c1Cl)N1CCC(NCC2CC2)CC1` [Compound 152, (3-Chloro-6-furan-3-yl-8-trifluoromethyl-imidazo[1,2-a]pyridin-2-yl)-[4-(cyclopropylmethyl-amino)-piperidin-1-yl]-methanone] returned a concentration giving a half-maximal response (EC50) of 19 µM.

Compound `COC(=O)C(NC(=O)c1cn2cc(-c3ccoc3)cc(C(F)(F)F)c2n1)C(C)(C)C` (centres unmarked) [Compound 154, 2-[(6-Furan-3-yl-8-trifluoromethyl-imidazo[1,2-a]pyridine-2-carbonyl)-amino]-3,3-dimethyl-butyric acid methyl ester] had a concentration giving a half-maximal response (EC50) of 27.7 µM.

`COC(=O)C(Cc1cnc[nH]1)NC(=O)c1cn2cc(-c3ccoc3)cc(C(F)(F)F)c2n1` (centres unmarked) [Compound 155, 2-[(6-Furan-3-yl-8-trifluoromethyl-imidazo[1,2-a]pyridine-2-carbonyl)-amino]-3-(3H-imidazol-4-yl)-propionic acid methyl ester] yielded an EC50 of 44.5 µM. Compared with the last compound, the EC50 is about 1.6-fold higher.

For the compound `COC(=O)C(CC(C)C)NC(=O)c1cn2cc(-c3ccoc3)cc(C(F)(F)F)c2n1` (centres unmarked) [Compound 156, 2-[(6-Furan-3-yl-8-trifluoromethyl-imidazo[1,2-a]pyridine-2-carbonyl)-amino]-4-methyl-pentanoic acid methyl ester], a half-maximal response (EC50) required 46.8 µM.

`COC(=O)C(Cc1ccccc1)NC(=O)c1cn2cc(-c3ccoc3)cc(C(F)(F)F)c2n1` (centres unmarked) [Compound 157, 2-[(6-Furan-3-yl-8-trifluoromethyl-imidazo[1,2-a]pyridine-2-carbonyl)-amino]-3-phenyl-propionic acid methyl ester] had an EC50 of more than 50 µM.

With `CC(C)CCOC1CCN(C(=O)c2nc3c(C(F)(F)F)cc(-c4ccoc4)cn3c2Cl)CC1` [Compound 158, (3-Chloro-6-furan-3-yl-8-trifluoromethyl-imidazo[1,2-a]pyridin-2-yl)-[4-(3-methyl-butoxy)-piperidin-1-yl]-methanone], the response was half-maximal at 8.11 µM (EC50).

The compound `O=C1CCC=C1C1=CCN(C(=O)c2nc3c(C(F)(F)F)cc(-c4ccoc4)cn3c2Cl)CC1` [Compound 159, 2-[1-(3-Chloro-6-furan-3-yl-8-trifluoromethyl-imidazo[1,2-a]pyridine-2-carbonyl)-1,2,3,6-tetrahydro-pyridin-4-yl]-cyclopent-2-enone] showed a 50% effective concentration (EC50) of 0.247 µM.

Compound `O=C(c1nc2c(C(F)(F)F)cc(-c3ccoc3)cn2c1Cl)N1CC[C@@H](NC(=O)C(F)(F)F)C1` [Compound 162, N-[1-(3-Chloro-6-furan-3-yl-8-trifluoromethyl-imidazo[1,2-a]pyridine-2-carbonyl)-pyrrohdin-3-yl]-2,2,2-trifluoro-acetamide] gave an EC50 of 43.5 µM.

`FC(F)(F)c1cc(-c2ccoc2)cn2cc(CN3CC=C(c4nccs4)C3)nc12` [Compound 163, 6-Furan-3-yl-2-(3-thiazol-2-yl-2,5-dihydro-pyrrol-1-ylmethyl)-8-trifluoromethyl-imidazo[1,2-a]pyridine] returned an EC50 of 42.4 µM.

On to `C=CC(=O)N[C@@H]1CCN(C(=O)c2nc3c(C(F)(F)F)cc(-c4ccoc4)cn3c2Cl)C1` [Compound 167, N-[1-(3-Chloro-6-furan-3-yl-8-trifluoromethyl-imidazo[1,2-a]pyridine-2-carbonyl)-pyrrolidin-3-yl]-acrylamide], for which the response was half-maximal at 1.68 µM (EC50).

One may read the EC50 as the midpoint of the concentration-response curve.
